The results in this text go back to PubChem BioAssay (NCI).

Several values for one entry are separate records, joined by “and”; a condition that tells them apart may be missing. Equal entries are not always repeated.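 Cells were grown in 96-well plates and exposed to each compound for 48 hours at five concentrations; endpoints were interpolated linearly between bracketing concentrations, or set to the highest concentration if not reached. The concentration for 50% growth inhibition is given as GI50. TGI denotes the concentration required for complete inhibition of growth.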

Test systems include IGROV1 ovarian; HOP-62 NSCLC; PC-3 prostate; HS 578T breast; HCT-116 colon; SR leukemia; SK-MEL-5 melanoma; K-562 leukemia; U251 CNS; SN12C renal.
What all share (assay): DTP human tumour cell line panel, 48 h

The GI50 is the concentration that inhibits growth by half. What is called TGI is the concentration giving total growth inhibition. On to `COc1cc(/C=C/C(=O)c2ccc(F)cc2)ccc1OCCCCOc1cc2c(cc1OC)C(=O)N1CCCC1C=N2` (stereo not given), for which the GI50 in the experiment with IGROV1 ovarian was 1.83 µM; in the experiment with HOP-62 NSCLC, 0.952 µM; in the experiment with PC-3 prostate, 0.923 µM; in the experiment with HS 578T breast, 0.336 µM; with HCT-116 colon, 0.618 µM; in the experiment with SR leukemia, 0.188 µM. For the same molecule, the GI50 with SK-MEL-5 melanoma was 0.758 µM; in the experiment with K-562 leukemia, 0.62 µM; in the experiment with U251 CNS, 0.704 µM; in the experiment on SN12C renal, 1.68 µM. The TGI in the experiment with IGROV1 ovarian was 3.59 µM; in the experiment with HOP-62 NSCLC, 12.5 µM; in the experiment with PC-3 prostate it was 12.8 µM; with HS 578T breast it was 9.36 µM; in the experiment on HCT-116 colon it was 6.09 µM; in the experiment on SR leukemia it was 0.841 µM. Moreover, the TGI is 5.37 µM in the experiment on SK-MEL-5 melanoma, 4.05 µM with K-562 leukemia, 7.85 µM in the experiment with U251 CNS and 15.9 µM in the experiment on SN12C renal.
Turning to `CS(=O)(=O)OCCCCOS(C)(=O)=O`, the GI50 is 981 µM with IGROV1 ovarian; 492 µM in the experiment on HOP-62 NSCLC; > 1000 µM with PC-3 prostate; > 555 µM in the experiment on HS 578T breast; 689 µM in the experiment with HCT-116 colon; 100 µM in the experiment with SR leukemia. For the same molecule, the GI50 in the experiment on SK-MEL-5 melanoma is 520 µM; with K-562 leukemia, 795 µM; in the experiment with U251 CNS, 469 µM; in the experiment on SN12C renal, 623 µM. The TGI in the experiment on IGROV1 ovarian was > 1000 µM; in the experiment with HOP-62 NSCLC it was 244 µM and 983 µM; with PC-3 prostate, 250 µM and > 1000 µM; with HS 578T breast, > 1000 µM; in the experiment on HCT-116 colon, 250 µM and > 1000 µM; with SR leukemia it was 223 µM and > 1000 µM. In addition, the concentration for total growth inhibition (TGI) with SK-MEL-5 melanoma is 242 µM and > 1000 µM; with K-562 leukemia it was 223 µM and > 1000 µM; in the experiment on U251 CNS, 238 µM and > 1000 µM; in the experiment with SN12C renal, 250 µM and > 1000 µM.
On to `S=P(C1CCCCC1)(C1CCCCC1)C(c1cccnc1)N1CCCC1` (stereo not given), for which the TGI in the experiment on IGROV1 ovarian was determined as 33.8 µM; in the experiment with HOP-62 NSCLC, 36.2 µM; in the experiment with PC-3 prostate, 36.9 µM; in the experiment with HS 578T breast, 84.3 µM; in the experiment on HCT-116 colon, 34.2 µM; in the experiment with SR leukemia it was 44.7 µM. For the same molecule, the concentration for total growth inhibition (TGI) with SK-MEL-5 melanoma turned out to be 31.9 µM; with K-562 leukemia, 39.2 µM; in the experiment on U251 CNS it was 46.6 µM; in the experiment with SN12C renal, 33.1 µM.
Take `O=C1c2cccc3c([N+](=O)[O-])ccc(c23)C(=O)N1CCCCl`: the GI50 was 1.9 µM in the experiment on IGROV1 ovarian; 6.6 µM in the experiment on HOP-62 NSCLC; 7.49 µM with PC-3 prostate; 4.6 µM in the experiment on HS 578T breast; 1.71 µM with HCT-116 colon; 0.334 µM with SR leukemia. Further, the GI50 with SK-MEL-5 melanoma was > 10 µM; with K-562 leukemia, 3.04 µM; in the experiment with U251 CNS, > 10 µM; in the experiment on SN12C renal, 5 µM. The TGI in the experiment on IGROV1 ovarian is 5 µM; in the experiment on HOP-62 NSCLC it was > 10 µM; in the experiment on PC-3 prostate, > 10 µM; in the experiment with HS 578T breast, > 10 µM; in the experiment on HCT-116 colon, 3.16 µM; in the experiment with SR leukemia, > 10 µM. For the same molecule, the TGI in the experiment with SK-MEL-5 melanoma, in the experiment with K-562 leukemia, with U251 CNS and with SN12C renal was > 10 µM each time.
`O=C1/C(=N/N=C(c2ccccc2)c2ccccc2)c2ccccc2-c2ccccc21`: the TGI in the experiment on IGROV1 ovarian, in the experiment on HOP-62 NSCLC, in the experiment on PC-3 prostate, with HS 578T breast, in the experiment on HCT-116 colon and in the experiment on SR leukemia was > 100 µM throughout. Besides, the TGI in the experiment with SK-MEL-5 melanoma, with K-562 leukemia, in the experiment with U251 CNS and in the experiment with SN12C renal was > 100 µM each time.
For the molecule `Cc1cc(NCCCNc2ccnc3cc(Cl)ccc23)nc(Nc2ccc(C(=O)N3CCCCC3)cc2)n1`, the GI50 in the experiment on IGROV1 ovarian is 3.09 µM; in the experiment with HOP-62 NSCLC, 2.4 µM; in the experiment with PC-3 prostate, 3.9 µM; in the experiment on HS 578T breast, 2.68 µM; in the experiment on HCT-116 colon, 2.22 µM; in the experiment on SR leukemia it was 1.72 µM. Also, the GI50 in the experiment with SK-MEL-5 melanoma is 1.93 µM; with K-562 leukemia, 1.98 µM; in the experiment on U251 CNS, 2.25 µM; with SN12C renal, 2.33 µM. The TGI worked out at 12.7 µM with IGROV1 ovarian; 7.43 µM with HOP-62 NSCLC; 14.4 µM in the experiment with PC-3 prostate; 6.38 µM with HS 578T breast; 5.83 µM in the experiment with HCT-116 colon; 4.24 µM in the experiment on SR leukemia. Also, the TGI in the experiment on SK-MEL-5 melanoma came to 3.34 µM; in the experiment with K-562 leukemia, 6.4 µM; with U251 CNS, 4.92 µM; in the experiment with SN12C renal it was 5.52 µM.
For the molecule `O=c1ncc(I)c[nH]1`, the GI50 in the experiment with IGROV1 ovarian, in the experiment with HOP-62 NSCLC, in the experiment with PC-3 prostate, in the experiment on HS 578T breast, in the experiment with HCT-116 colon and with SR leukemia was > 100 µM each time. Besides, the GI50 with SK-MEL-5 melanoma, with K-562 leukemia, in the experiment with U251 CNS and in the experiment with SN12C renal was > 100 µM throughout. For the same molecule, the TGI in the experiment with IGROV1 ovarian, in the experiment with HOP-62 NSCLC, with PC-3 prostate, in the experiment on HS 578T breast, in the experiment with HCT-116 colon and in the experiment on SR leukemia was > 100 µM each time. The TGI in the experiment with SK-MEL-5 melanoma, in the experiment with K-562 leukemia, in the experiment with U251 CNS and in the experiment on SN12C renal was > 100 µM throughout.
Regarding `CC(C)C[C@H](NC(=O)[C@H](Cc1ccccc1)NC(=O)c1cnccn1)B(O)O`, the GI50 was 0.013 µM and 0.00385 µM in the experiment with IGROV1 ovarian; < 0.0131 µM and 0.00317 µM with HOP-62 NSCLC; 0.0125 µM and 0.00364 µM with PC-3 prostate; < 0.01 µM and 0.00192 µM in the experiment on HS 578T breast; 0.00108 µM in the experiment on HCT-116 colon; 0.00219 µM in the experiment on SR leukemia. The GI50 with SK-MEL-5 melanoma was < 0.01 µM and 0.0014 µM; in the experiment on K-562 leukemia it was 0.00398 µM; in the experiment on U251 CNS, 0.00256 µM; in the experiment with SN12C renal, < 0.0114 µM and 0.00194 µM. Moreover, the TGI was 0.137 µM and 0.102 µM and 0.15 µM with IGROV1 ovarian; 0.197 µM and 0.0952 µM and 0.106 µM with PC-3 prostate; < 0.0161 µM and 0.00328 µM with HCT-116 colon; 0.014 µM and 0.00411 µM in the experiment on SK-MEL-5 melanoma; > 100 µM in the experiment with K-562 leukemia.
